Reference: patent publication US20240327790A1, “METHODS AND COMPOSITIONS RELATING TO 3-D CULTURES” (PRESIDENT AND FELLOWS OF HARVARD COLLEGE, priority 2021, published 2024)

Key:
[1] = tested on: human skin model, primary human adult diabetic keratinocytes; assay: Irritation test (MTT viability) on skin model with adult diabetic donor keratinocytes; type: cell-based; details: 2 mg/mL SDS in PBS, 50 μL on top of 14-day diabetic sample, 18 hours at 37° C., MTT 3 hours, absorbance 490 nm
Protocol: (§1) One potential use-case for these skin models is as an irritation model for pharmaceuticals, cosmetics, or occupational health studies. To evaluate the use of these stamped models in irritation tests, a common test method^21 was adapted. Sodium dodecyl sulfate (SDS) was applied to the top of these samples after 14 days of culture and incubated at 37° C. for 18 hours. After, an MTT assay was used to measure the cell viability. […] If the SDS penetrates through the epidermal barrier, the sample will not be viable and give a low signal in the MTT assay. […] Moreover, the standard for this test method is that the normalized viability reaches 50% between 1-3 mg/mL of SDS added to the samples^21. The samples here met this standard, as the 3 mg/mL neonatal samples have absorbance values greater than 50% of the negative control, and the diabetic sample with 2 mg/mL SDS has absorbance value greater than 50% of the negative control.
(§2) Irritation Test. After keratinocytes had grown for 14 days, 50 μL of SDS at a concentration between 1-3 mg/mL in PBS was applied to the top of each skin sample. 1×PBS was applied as a negative control. […] After the substrate was completely dissolved, 50 μL of isopropanol formazan solution was transferred from each well to a 48 well plate, which was measured on a plate reader using the absorbance setting at 490 nm.

[2] = tested on: human skin models, primary human neonatal keratinocytes; assay: Irritation test (MTT viability) on skin models with neonatal keratinocytes; type: cell-based; details: 3 mg/mL SDS in PBS, 50 μL on top of 14-day neonatal samples, 18 hours at 37° C., MTT 3 hours, absorbance 490 nm
Protocol: as §1, §2

Structure (SMILES): CCCCCCCCCCCCOS(=O)(=O)[O-].[Na+] [SDS, Sodium dodecyl sulfate]
- absorbance value (MTT viability) relative to negative control [1]: greater than 50 % of the negative control
- absorbance value (MTT viability) relative to negative control [2]: greater than 50 % of the negative control
